Paper PMC5617230, “The single cyclic nucleotide-specific phosphodiesterase of the intestinal parasite Giardia lamblia represents a potential drug target” (PLoS Neglected Tropical Diseases, 2017)
Where a name gives a salt, the structure may show the parent alone. Read-outs that look alike come from different tables or passages of the source.

What was measured:
[1] = molecular target: recombinant GlPDE(aa588-1371) (Giardia intestinalis, UniProt A0A644EZ75); test: biochemical; type: biochemical; conditions: for Activity against recombinant GlPDE in profiling assay: inhibitor at 100 μM, Fig 3A
Source text: The DNA sequence comprising the catalytic domain (residues Gly-983 –Glu-1371) was amplified by PCR using genomic DNA of G. lamblia WBC6 and the primer pair GlPDE1cat-for (5'-[…]-3') and GlPDE1cat-rev (5'-[…]-3'). The PCR product was then cloned into the TA vector pCRII-TOPO (Invitrogen) yielding plasmid pCR-GlPDE1cat. To get a plasmid containing the sequence coding for the full length protein lacking the N-terminal transmembrane helices (Met-588 –Glu-1371) of GlPDE, a further PCR product was produced using the primer pair GlPDE1-Mfor (5'-[…]-3') and GlPDE1-LMrev (5'-[…]-3') and was cloned via NdeI (bold) and BsrGI into pCR-GlPDE1cat resulting in plasmid pCR-GlPDE1M. The inserts of both plasmid constructs were verified by sequencing and subcloned into two variants of the yeast expression vector pLT1 [42] using the restriction enzymes SalI (italic)/EcoRV or NdeI (bold)/EcoRV. The EcoRV cloning site originated from the multiple cloning site of the pCRII-TOPO vector. One pLT1 variant directs the expression of the Giardia protein alone, whereas the other adds an N-terminal hemagglutinin (HA) tag to allow detection of the recombinant protein. Transformation of the constructs into the PDE-deficient S. cerevisiae strain PP5 (MATa leu2-3 leu2- 112 ura3-52 his3-532 his4 cam pde1::URA3 pde2::HIS3) was carried out as described previously.
Yeast cell pellets were created exactly as described previously. Briefly, yeast was grown at 30°C in SC-leu medium to end log phase and thereafter again for 3.5 h in YPD to maximize protein expression. Washed cells were frozen in liquid nitrogen and stored at -70°C. Frozen cell pellets were thawed on ice and resuspended in an equal volume of ice-cold extraction buffer (50 mM HEPES, pH 7.5, 100 mM NaCl, 1x Complete protease inhibitor cocktail without EDTA (Roche Applied Science)). Cell lysates were produced by three passages through a high pressure homogenizer (French press at 20’000 psi, 4°C). Unbroken cells and cell debris were removed by centrifugation for 20 min at 16’000 RCF at 4°C. 25% glycerol was added to the cleared supernatant. Aliquots were snap-frozen in liquid nitrogen and stored at -70°C for subsequent PDE activity assays.
PDE activity was determined by a modification of the two-step procedure of Thompson and Appleman as described previously. In all reactions no more than 20% of the substrate was hydrolyzed. […] Inhibitors were dissolved and diluted in dimethyl sulfoxide (DMSO), with 1% final DMSO concentration in the reaction mixes. Control reactions with DMSO alone were always included. Data were analyzed using the GraphPad Prism software package (GraphPad, San Diego).

[2] = test system: G. lamblia WBC6 trophozoites; test: G. lamblia trophozoite proliferation assay (resazurin); type: cell-based, Giardia lamblia; conditions: for EC50: G. lamblia WBC6 trophozoites, 72 h anaerobic culture, read-out: Giardia cells EC50; for Effect on Giardia trophozoite proliferation: 50 μM inhibitor, 72 h culture, Fig 3B
Procedure: G. lamblia WBC6 (ATCC catalogue number 50803) trophozoites were grown under microaerophilic conditions in 11 ml culture tubes (Nunc, cat. 156758) containing TYI-S- 33 medium supplemented with 10% bovine serum and bovine bile according to standard protocols. Parasites were harvested by chilling the tubes on ice for 30 minutes to detach adherent cells and collected by centrifugation (900 x g, 10 minutes, 4°C). Encystation was induced using the two-step method as described previously by cultivating the trophozoites in bile-free medium for 44 hours and thereafter in medium (pH 7.85) containing porcine bile.
Test compounds were dissolved in DMSO and serially diluted in Giardia culture medium. G. lamblia WBC6 trophozoites were grown until adherent cells reached a confluency close to 100%. Cells were then chilled on ice for 20 min and adherent parasites were detached from the culture tube. Cultures were diluted to 5x10^3 cells/ml in growth medium (room temperature) and 100 μl aliquots were immediately added to wells of 96-well plates preloaded with the same volume of test compound dilutions. DMSO (solvent) controls were always included. Plates were incubated for 72 h at 37°C in a humid chamber with an anaerobic atmosphere. Adherent cells were then washed twice with 200 μl PBS before adding 200 μl of PBS containing […] resazurin and 1% glucose. After incubation for 4 h at 37°C, plates were read on a fluorescence plate reader (Wallac 1420 VICTOR^2, PerkinElmer) with excitation and emission wavelengths of 544 nm and 590 nm, respectively. Data were analyzed with the GraphPad Prism software package using a sigmoidal dose-response model for regression. All assays were done in quadruplicate and at least three independent experiments were performed.

TbrPDEB1 and TbrPDEB2 = test system: TbrPDEB1 and TbrPDEB2; design: method as in PMID 22291195, PMID 22963052; conditions: cited from earlier work

SMILES | IC50 ([1]; read-out: Giardia PDE IC50) | IC50 [1] | EC50 ([2]; Giardia duodenalis) | also measured
Cc1ccc([N+](=O)[O-])cc1S(=O)(=O)N(C)C [BRL 50481] | > 100 µM | – | – | –
Cc1[nH]c(=O)c(C#N)cc1-c1ccncc1 [Milrinone, milrinone] | – | > 100 µM | > 50 µM | –
CCCc1nn(C)c2c(=O)[nH]c(-c3cc(S(=O)(=O)N4CCN(C)CC4)ccc3OCC)nc12 [Sildenafil, sildenafil citrate] | – | > 100 µM | > 50 µM | –
COc1cc(-c2ccc(=O)[nH]n2)ccc1OC(F)F [Zardaverine, zardaverine] | – | > 100 µM | > 50 µM | –
Nc1nc2c(ncn2[C@@H]2O[C@@H]3COP(=O)(O)O[C@H]3[C@H]2O)c(=O)[nH]1 [cGMP] | – | – | – | Acceptance as substrate by GlPDE ([1]; recombinant GlPDE(aa588-1371)): does not accept cGMP as a substrate
C[C@H](Cc1nc2c(cnn2-c2ccccc2Cl)c(=O)[nH]1)C(F)(F)F [BAY 73–6691] | > 100 µM | – | – | EC50 [2]: > 50 µM
CCOC(=O)C1=C[C@]2(CC)CCCN3CCc4c(n1c1ccccc41)[C@@H]32 [Vinpocetine, vinpocetine] | – | > 100 µM | 16.3 µM | –
CC(=O)CCCCn1c(=O)c2c(ncn2C)n(C)c1=O [Pentoxifylline, pentoxifylline] | – | – | > 50 µM | –
CCCCCC[C@@H]([C@@H](C)O)n1cnc2c(N)ncnc21 (racemic) [EHNA, erythro-9-(2-hydroxy-3-nonyl)adenine] | > 100 µM | – | – | EC50 [2]: > 50 µM
COc1cc2c(cc1OC)-c1c/c(=N\c3c(C)cc(C)cc3C)n(C)c(=O)n1CC2 [Trequinsin, trequinsin] | – | > 100 µM | > 50 µM | –
CCCCOc1cc(CC2CNC(=O)N2)ccc1OC (stereo not drawn) [Ro20-1724] | > 100 µM | – | – | EC50 [2]: > 50 µM
COc1ccc(Cc2nccc3cc(OC)c(OC)cc23)cc1OC [Papaverine, papaverine] | – | > 100 µM | > 50 µM | –
O=C(Nc1c(Cl)cncc1Cl)c1ccc(OC(F)F)c(OCC2CC2)c1 [Roflumilast, roflumilast] | – | 6 µM | 7.4 µM | Activity against recombinant GlPDE in profiling assay [1]: showed promising activity against GlPDE; Effect on Giardia trophozoite proliferation [2]: also inhibited Giardia trophozoite proliferation
COCc1nc2c([nH]1)c(=O)n(C)c(=O)n2CC(C)C [8'-MM-IBMX, 8-methoxymethyl-IBMX] | > 100 µM | – | – | EC50 [2]: > 50 µM
COc1ccc(C(=O)Nc2c(Cl)cncc2Cl)cc1OC1CCCC1 [Piclamilast, piclamilast] | – | 11.3 µM | 12 µM | Activity against recombinant GlPDE in profiling assay [1]: showed promising activity against GlPDE; Effect on Giardia trophozoite proliferation [2]: also inhibited Giardia trophozoite proliferation
OCCN(CCO)c1nc(N2CCCCC2)c2nc(N(CCO)CCO)nc(N3CCCCC3)c2n1 [Dipyridamole, dipyridamole] | – | 26.3 µM | > 50 µM | Activity against recombinant GlPDE in profiling assay [1]: showed promising activity against GlPDE
COc1ccc(Cc2nn3c([C@@H](CCCc4ccccc4)[C@@H](C)O)nc(C)c3c(=O)[nH]2)cc1OC [BAY 60–7550] | – | – | – | EC50 [2]: ~50 µM

The next lines start with results.

IC50 ([1]; read-out: Giardia PDE IC50) | SMILES | IC50 [1] | EC50 ([2]; Giardia duodenalis) | also measured
> 100 µM | COc1ccc(C2CNC(=O)C2)cc1OC1CCCC1 (stereo not drawn) [Rolipram, rolipram] | – | > 50 µM | –
> 100 µM | CN1CC(=O)N2[C@H](c3ccc4c(c3)OCO4)c3[nH]c4ccccc4c3C[C@@H]2C1=O [Tadalafil, tadalafil] | – | > 50 µM | –
~100 µM | COc1cc2ncnc(N3CC[C@@H](Oc4cnc5ccccc5n4)C3)c2cc1OC [NEU28] | – | – | EC50 [2]: 30.6 µM
0.8 µM | COc1ccc(C2=NN(C3CCCCCC3)C(=O)[C@@H]3CC=CC[C@H]23)cc1OCCCCOc1ccc(-c2nn[nH]n2)cc1 [NPD-001] | – | – | Potency against trypanosomal PDEs (TbrPDEB1 and TbrPDEB2): potencies in the nanomolar range; Activity against recombinant GlPDE in profiling assay [1]: showed promising activity against GlPDE; Effect on Giardia trophozoite proliferation [2]: also inhibited Giardia trophozoite proliferation; EC50 [2]: 6.9 µM
~100 µM | CCOC(=O)c1cnc2c(cnn2CC)c1NN=C(C)C [Etazolate, etatolate] | – | > 50 µM | –
> 100 µM | CCCOc1ccccc1-c1nc2nn[nH]c2c(=O)[nH]1 [Zaprinast, zaprinast] | – | > 50 µM | –
> 100 µM | CC(C)Cn1c(=O)n(C)c(=O)c2[nH]cnc21 [IBMX, isobutyl-methyl-xanthine] | – | > 50 µM | –
> 100 µM | CN(C(=O)CCCOc1ccc2[nH]c(=O)ccc2c1)C1CCCCC1 [Cilostamide, cilostamide] | – | > 50 µM | –
